From article PMC11922054 (Science Advances, 2025)
Ends that are not written are not given here.

Legend:
[1] = test system: sheep red blood cells (RBCs); assay: Hemolytic activity; assay type: cell-based; conditions: 0 to 512 μM, 37°C, 1 hour
HEp-2 cells = assay: Cytotoxicity, WST-1 assay; assay type: cell-based, human; conditions: up to 512 μM, 24 hours
S. cohnii L5 [2] = assay: MIC, broth microdilution; assay type: cell-based, Staphylococcus cohnii; conditions: for MICs of derivatives: strain not named in the sentence (table S6: S. cohnii L5 and E. coli)
pH stability = assay type: physicochemical; conditions: pH 2 to 12 for 1 and 2 hours, 37°C; read-out activity on S. cohnii L5
Vero cells = assay: Cytotoxicity, WST-1 assay; assay type: cell-based, African green monkey; conditions: up to 512 μM, 24 hours
S. cohnii L5 [3] = assay: Mouse skin wound infection model; assay type: in vivo; conditions: 10 days; NCBP1 8 mg/kg
BALB/c mice = assay: In vivo toxicity experiments; set-up: species or system mouse; conditions: after 5 days; intraperitoneal, highest dose 150 mg/kg; n = 5
H9c2 cells = assay: Cytotoxicity, WST-1 assay; assay type: cell-based, rat; conditions: up to 512 μM, 24 hours
A549 cells = assay: Cytotoxicity, WST-1 assay; assay type: cell-based; conditions: up to 512 μM, 24 hours

## KPWLRVALCPG [NCBP1]
[1]
  hemolytic activity: no noticeable hemolytic activity
HEp-2 cells
  toxicity toward cells: negligible toxicity
S. cohnii L5 [2]; S. cohnii L5, broth microdilution, 18 h, 37°C
  MIC: 16 µM
pH stability
  pH stability: resistant to a wide range of pH values
Vero cells
  toxicity toward cells: negligible toxicity
S. cohnii L5 [3]
  growth of the mice, body weight: did not affect the normal growth
BALB/c mice
  survival rate of mice: 100%
H9c2 cells
  toxicity toward cells: negligible toxicity
A549 cells
  toxicity toward cells: negligible toxicity

## APWLRVALCPG [NCBP1a]
S. cohnii L5 [2]
  MICs of derivatives: > 512 µM

## KPWLAVALCPG [NCBP1b]
S. cohnii L5 [2]
  MICs of derivatives: > 512 µM
